Measurements taken from patent EP0284686A1, “Condensed triazoles, their preparation and their use as medicines” (BEECHAM GROUP PLC, priority 1986, dated 1988).

What was measured:
RBL-1 5-lipoxygenase = target: T1, RBL-1 5-lipoxygenase (Rattus norvegicus, UniProt P12527); test: RBL-1 5-lipoxygenase screen; format: biochemical; conditions: 10,000g supernatant from RBL-1 cells, formation of 5-HETE and 5,12-diHETE from [1-14C] arachidonic acid, read-out: Percentage inhibition of RBL-1 5-lipoxygenase at 20µM
T1 construct: 5-Lipoxygenase enzyme was prepared as a 10,000g supernatant from RBL-1 cells; endogenous in cells; host or cells: RBL-1 cells (10,000g supernatant of homogenate)
T1 sequence (P12527 1-673): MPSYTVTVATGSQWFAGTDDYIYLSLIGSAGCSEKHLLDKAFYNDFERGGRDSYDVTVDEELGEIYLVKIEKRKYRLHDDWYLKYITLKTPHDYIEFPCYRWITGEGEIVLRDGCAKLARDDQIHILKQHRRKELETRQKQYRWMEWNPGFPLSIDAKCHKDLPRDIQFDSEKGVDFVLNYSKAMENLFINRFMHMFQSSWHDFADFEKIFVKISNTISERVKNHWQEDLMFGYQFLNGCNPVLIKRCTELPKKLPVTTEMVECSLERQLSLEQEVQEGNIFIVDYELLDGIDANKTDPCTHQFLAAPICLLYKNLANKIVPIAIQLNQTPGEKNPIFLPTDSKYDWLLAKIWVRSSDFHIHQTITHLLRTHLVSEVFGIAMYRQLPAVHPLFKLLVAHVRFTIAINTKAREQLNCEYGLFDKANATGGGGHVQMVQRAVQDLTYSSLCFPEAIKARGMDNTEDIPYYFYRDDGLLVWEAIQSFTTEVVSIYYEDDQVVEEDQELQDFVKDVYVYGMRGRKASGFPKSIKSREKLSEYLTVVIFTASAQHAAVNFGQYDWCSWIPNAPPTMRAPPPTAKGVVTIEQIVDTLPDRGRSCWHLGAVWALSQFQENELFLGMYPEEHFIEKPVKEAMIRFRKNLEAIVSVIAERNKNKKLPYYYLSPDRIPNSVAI
Method: 5-Lipoxygenase enzyme was prepared as a 10,000g supernatant from RBL-1 cells by the method of Jakschik (Jakschik, B.A., F.F. Sun, L.M.Lee, and M.M. Steinhoff, 1980, Biochem. Biophys. Res.Comm. 95 103). The 10,000g supernatant was diluted with homogenization buffer to the equivalent of 1.5 - 2.5 × 10⁷ cells. ml.⁻¹ and made 2mM with respect to CaCl₂. Aliquots of 0.5ml were then dispensed into tubes, and incubated at 29°C with 5µl ethanol or compound in ethanol at the desired concentration for 2min. Then [1-¹⁴C] arachidonic acid was added in buffer to give a final concentration of 6.3µM and 0.2µCi per incubation, and the reaction continued at 29°C for 2min. The reaction was terminated by adding 1ml of acetone and cooling on ice, 0.5ml of ice-cold saline and 100µl of 2N formic acid were added, and the mixture was extracted with 2 × 2ml of chloroform. The extract was stored under N₂ at -20°C until analysis by chromatography. Activity was measured as the percentage of total radioactivity found in 5-HETE and 5,12-diHETE, and inhibition calculated as the decrease in formation of the sum of these two species in compound-treated incubates relative to control incubations.

[1] = tested on: passive peritoneal anaphylaxis; test: Rat passive peritoneal anaphylaxis (PPA); format: in vivo; conditions: i.p., final concentration 2×10⁻⁴M, contact time 2½ minutes
Method: The method is essentially similar to that described previously by Ross et al (Ross, Janet W., Smith, H. and Spicer, Barbara A. Increased vascular permeability during passive peritoneal anaphylaxis in the rat. Int. Arch. Allergy appl. Immun. 51, 226, 1976.)
Charles River Sprague Dawley male rats of 225-275 g and Dunkin Hartley male white guinea pigs of 250-300 g were used.
Charles River Sprague Dawley male rats of 225 - 275 g were given intraperitoneal injections of 0.5 ml of either Bordetella pertussis vaccine (4 × 10¹⁰ organisms/ml; Burroughs Wellcome, London) or Pertussis vaccine absorbed (not less than 41.u. B. pertussis antigen with aluminium hydroxide; The Lister Institute Elstree, England), and subcutaneous injections of 0.5ml of an emulsion of 100 mg of ovalbumin (chicken egg albumin; crystallised and lyophilised, grade V, Sigma, London) in 2ml of isotonic saline and 3ml of incomplete Freund's adjuvant. The rats were bled by cardiac puncture on day 18, the blood was pooled and the serum separated, stored at -20°C and thawed only once before use. The serum produced 72 hour passive cutaneous anaphylaxis activity in recipient rats to a dilution of 1:64 to 1:32 which was decreased to a dilution of less than 1:2 by heating at 56°C for 4 hours.
Rats were given intraperitoneal injections of 2 ml of a 1:5 dilution of the rat anti-serum in isotonic saline. Two hours later 0.3ml of 5% solution of Pontamine Sky Blue (Raymond A. Lamb, London) in isotonic saline was injected intraveneously, followed by an intraperitoneal injection of the test compound in 1 ml of saline; (control rats received 1 ml of saline); followed 2.5 minutes later by an intraperitoneal injection of 5 ml of a Tyrode solution containing 50µg/ml heparin and 0.4 mg/ml of ovalbumin. The concentrations of the compounds were quoted as that in the 6 ml of fluid injected intraperitoneally. […]
The optical densities (OD) of the supernatants which were not contaminated with blood were determined immediately at 625nm. […]

inhibition at 20 µM (RBL-1 5-lipoxygenase) [%]	Structure (SMILES)	Percentage inhibition SRS-A ([1]; SRS-A in peritoneal fluid assayed on guinea pig ileum)	Percentage inhibition Dye ([1]; dye in peritoneal fluid (OD 625nm))	Percentage inhibition Histamine ([1]; histamine in peritoneal fluid)
89	Cc1ccc(O)c2c1nnn2Cc1ccccc1 [Example 1, 3-Benzyl-4-hydroxy-7-methylbenzotriazole]			
81	Cc1ccc(O)c2nn(Cc3ccccc3)nc12 [Example 2, 2-Benzyl-4-hydroxy-7-methylbenzotriazole]	49	30	45
